From ChEMBL document CHEMBL1201862, “PubChem BioAssay data set” (2004)
The source made the active and inactive calls.

Experiments:
[1] = THP-1 cell cytotoxicity, dose response, cytotoxicity control for non-replicating M. tuberculosis project (AID 489025); assay type: functional
[2] = HepG2 cell cytotoxicity, dose response, cytotoxicity control for non-replicating M. tuberculosis project (AID 489018); assay type: functional; conditions: Mycobacterium tuberculosis
cells = assay type: functional
[3] = biological target: T1, Replicative DNA helicase DnaB (Mycobacterium tuberculosis, UniProt P9WMR3); experiment: DnaB intein splicing inhibitors, dose response, biochemical, cell-free fluorescence (AID 449749); assay type: functional
T1 sequence (P9WMR3 whole entry): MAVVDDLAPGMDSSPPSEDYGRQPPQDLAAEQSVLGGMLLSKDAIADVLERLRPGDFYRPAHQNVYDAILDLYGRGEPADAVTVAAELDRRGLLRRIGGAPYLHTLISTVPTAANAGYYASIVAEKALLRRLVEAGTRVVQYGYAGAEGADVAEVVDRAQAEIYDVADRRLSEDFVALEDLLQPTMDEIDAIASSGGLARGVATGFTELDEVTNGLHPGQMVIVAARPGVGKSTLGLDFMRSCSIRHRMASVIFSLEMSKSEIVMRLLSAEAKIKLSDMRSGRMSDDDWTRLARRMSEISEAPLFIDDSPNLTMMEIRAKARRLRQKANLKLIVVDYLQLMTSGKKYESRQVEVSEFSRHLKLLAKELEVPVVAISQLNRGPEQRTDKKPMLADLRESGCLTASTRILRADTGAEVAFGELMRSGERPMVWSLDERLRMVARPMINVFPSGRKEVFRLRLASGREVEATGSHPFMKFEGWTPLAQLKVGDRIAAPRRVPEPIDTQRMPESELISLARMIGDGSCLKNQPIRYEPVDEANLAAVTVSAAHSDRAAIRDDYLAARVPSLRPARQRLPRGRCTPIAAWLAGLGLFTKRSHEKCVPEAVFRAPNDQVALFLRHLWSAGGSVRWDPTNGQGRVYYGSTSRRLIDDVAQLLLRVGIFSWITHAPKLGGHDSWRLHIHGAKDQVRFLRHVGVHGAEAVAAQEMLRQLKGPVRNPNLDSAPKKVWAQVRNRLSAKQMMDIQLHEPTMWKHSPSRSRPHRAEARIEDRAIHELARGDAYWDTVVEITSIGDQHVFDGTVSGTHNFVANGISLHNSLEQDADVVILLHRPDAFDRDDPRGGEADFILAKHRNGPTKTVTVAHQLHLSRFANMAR

Protein RecA = biological target: T2, Protein RecA (Mycobacterium tuberculosis, UniProt P9WHJ3); experiment: Fluorescence Cell-Free Homogeneous Dose Retest to Identify Inhibitors of RecA-Intein Splicing Activity. [Related pubchem assays (depositor defined):AID2097, AID2223, AID489010, AID492950]; assay type: functional
T2 sequence (P9WHJ3 whole entry): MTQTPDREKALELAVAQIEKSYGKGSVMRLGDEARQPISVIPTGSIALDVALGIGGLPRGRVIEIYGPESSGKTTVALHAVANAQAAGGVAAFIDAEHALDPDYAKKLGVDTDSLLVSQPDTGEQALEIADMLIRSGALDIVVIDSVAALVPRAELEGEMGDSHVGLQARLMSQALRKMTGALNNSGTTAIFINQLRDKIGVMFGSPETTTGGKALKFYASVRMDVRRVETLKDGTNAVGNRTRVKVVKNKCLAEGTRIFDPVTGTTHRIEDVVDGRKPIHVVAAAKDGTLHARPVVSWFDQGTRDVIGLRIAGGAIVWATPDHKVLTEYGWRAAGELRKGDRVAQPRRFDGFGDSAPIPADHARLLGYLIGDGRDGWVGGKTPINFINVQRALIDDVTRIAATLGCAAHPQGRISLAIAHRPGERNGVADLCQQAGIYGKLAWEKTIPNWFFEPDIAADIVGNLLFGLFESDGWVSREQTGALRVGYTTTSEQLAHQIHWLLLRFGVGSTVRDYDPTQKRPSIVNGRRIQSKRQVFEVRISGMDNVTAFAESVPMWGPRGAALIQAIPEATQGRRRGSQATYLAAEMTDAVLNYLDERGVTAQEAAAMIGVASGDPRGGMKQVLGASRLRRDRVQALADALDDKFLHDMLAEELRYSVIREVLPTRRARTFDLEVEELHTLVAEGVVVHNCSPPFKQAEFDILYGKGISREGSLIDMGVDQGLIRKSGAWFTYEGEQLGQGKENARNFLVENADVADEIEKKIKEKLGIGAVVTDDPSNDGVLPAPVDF

Leucine aminopeptidase = biological target: T3, Leucine aminopeptidase (Plasmodium falciparum 3D7, UniProt Q8IL11); experiment: P. falciparum M17LAP inhibitors, primary screen, biochemical, fluorogenic H-Leu-NHMec substrate, 1536-well (AID 1619); assay type: functional
T3 sequence (Q8IL11 whole entry): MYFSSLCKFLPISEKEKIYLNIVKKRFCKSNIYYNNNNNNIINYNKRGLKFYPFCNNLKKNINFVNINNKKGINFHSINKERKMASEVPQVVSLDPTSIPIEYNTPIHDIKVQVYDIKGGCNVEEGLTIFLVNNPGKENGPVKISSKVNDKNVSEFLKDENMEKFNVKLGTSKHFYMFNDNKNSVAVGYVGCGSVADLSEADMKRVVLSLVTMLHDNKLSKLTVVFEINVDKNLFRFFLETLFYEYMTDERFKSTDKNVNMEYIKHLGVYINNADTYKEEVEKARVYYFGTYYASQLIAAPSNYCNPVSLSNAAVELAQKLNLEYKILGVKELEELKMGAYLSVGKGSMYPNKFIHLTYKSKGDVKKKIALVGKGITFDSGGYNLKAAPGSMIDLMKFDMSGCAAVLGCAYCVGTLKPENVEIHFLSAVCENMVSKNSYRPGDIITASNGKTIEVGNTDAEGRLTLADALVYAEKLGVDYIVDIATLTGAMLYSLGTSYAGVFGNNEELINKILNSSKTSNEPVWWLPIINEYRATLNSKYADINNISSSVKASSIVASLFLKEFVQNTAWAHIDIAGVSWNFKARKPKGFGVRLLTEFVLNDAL

[4] = M. tuberculosis H37Rv growth inhibitors, H37Rv strain (AID 1626); assay type: functional
SUMO-activating enzyme [5] = biological target: T4, SUMO-activating enzyme (Homo sapiens, UniProt Q9UBT2); experiment: SUMOylation inhibitor hit validation, confirmation, SUMOylation inhibitor project, biochemical, AlphaScreen (AID 2018); assay type: functional
SUMO-activating enzyme [6] = biological target: T4, SUMO-activating enzyme; experiment: inhibitors of in vitro SUMOylation cascade, primary screen, biochemical, HTRF, uHTS (AID 2006); assay type: protein-complex assay
[7] = biological target: Voltage-dependent T-type calcium channel subunit alpha-1H (Homo sapiens, UniProt O95180); assay type: functional;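 note: channel activity triggered by adding a high calcium stimulation buffer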
[8] = biological target: Polyadenylate-binding protein 1 (Homo sapiens, UniProt P11940); experiment: PABP poly(A) RNA binding inhibitors, primary screen, biochemical, fluorescence polarization, uHTS (AID 2014)
[9] = biological target: Eukaryotic translation initiation factor 4H (Homo sapiens, UniProt Q15056); experiment: human eIF4H binding inhibitors, primary screen, translation initiation inhibitor project, biochemical, uHTS, fluorescence polarization (AID 2012)
[10] = biological target: Induced myeloid leukemia cell differentiation protein Mcl-1 (Homo sapiens, UniProt Q07820); assay type: functional
[11] = biological target: T5, Tyrosyl-DNA phosphodiesterase 2 (Homo sapiens, UniProt O95551); experiment: human TDP2 enzyme inhibitors, dose response, biochemical, epi absorbance, IC50 (AID 743297)
T5 sequence (O95551 whole entry): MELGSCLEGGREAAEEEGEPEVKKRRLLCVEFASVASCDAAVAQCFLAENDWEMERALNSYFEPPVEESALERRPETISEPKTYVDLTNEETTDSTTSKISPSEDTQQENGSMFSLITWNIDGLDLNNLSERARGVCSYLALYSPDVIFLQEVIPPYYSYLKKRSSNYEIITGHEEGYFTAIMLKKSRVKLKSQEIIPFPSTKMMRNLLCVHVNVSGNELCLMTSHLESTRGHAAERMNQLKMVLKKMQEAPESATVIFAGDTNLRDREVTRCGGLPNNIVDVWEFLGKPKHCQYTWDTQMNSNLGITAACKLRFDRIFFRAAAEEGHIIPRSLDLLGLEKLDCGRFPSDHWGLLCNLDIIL

Genome polyprotein = Genome polyprotein (dengue virus type 2, UniProt P29990); experiment: Dengue-2 NS5 methyltransferase inhibitors, primary screen, biochemical, confirmation dose response (AID 588689); assay type: functional
[12] = biological target: T6, Apoptotic protease-activating factor 1 (Homo sapiens, UniProt O14727); assay type: functional
T6 sequence (O14727 whole entry): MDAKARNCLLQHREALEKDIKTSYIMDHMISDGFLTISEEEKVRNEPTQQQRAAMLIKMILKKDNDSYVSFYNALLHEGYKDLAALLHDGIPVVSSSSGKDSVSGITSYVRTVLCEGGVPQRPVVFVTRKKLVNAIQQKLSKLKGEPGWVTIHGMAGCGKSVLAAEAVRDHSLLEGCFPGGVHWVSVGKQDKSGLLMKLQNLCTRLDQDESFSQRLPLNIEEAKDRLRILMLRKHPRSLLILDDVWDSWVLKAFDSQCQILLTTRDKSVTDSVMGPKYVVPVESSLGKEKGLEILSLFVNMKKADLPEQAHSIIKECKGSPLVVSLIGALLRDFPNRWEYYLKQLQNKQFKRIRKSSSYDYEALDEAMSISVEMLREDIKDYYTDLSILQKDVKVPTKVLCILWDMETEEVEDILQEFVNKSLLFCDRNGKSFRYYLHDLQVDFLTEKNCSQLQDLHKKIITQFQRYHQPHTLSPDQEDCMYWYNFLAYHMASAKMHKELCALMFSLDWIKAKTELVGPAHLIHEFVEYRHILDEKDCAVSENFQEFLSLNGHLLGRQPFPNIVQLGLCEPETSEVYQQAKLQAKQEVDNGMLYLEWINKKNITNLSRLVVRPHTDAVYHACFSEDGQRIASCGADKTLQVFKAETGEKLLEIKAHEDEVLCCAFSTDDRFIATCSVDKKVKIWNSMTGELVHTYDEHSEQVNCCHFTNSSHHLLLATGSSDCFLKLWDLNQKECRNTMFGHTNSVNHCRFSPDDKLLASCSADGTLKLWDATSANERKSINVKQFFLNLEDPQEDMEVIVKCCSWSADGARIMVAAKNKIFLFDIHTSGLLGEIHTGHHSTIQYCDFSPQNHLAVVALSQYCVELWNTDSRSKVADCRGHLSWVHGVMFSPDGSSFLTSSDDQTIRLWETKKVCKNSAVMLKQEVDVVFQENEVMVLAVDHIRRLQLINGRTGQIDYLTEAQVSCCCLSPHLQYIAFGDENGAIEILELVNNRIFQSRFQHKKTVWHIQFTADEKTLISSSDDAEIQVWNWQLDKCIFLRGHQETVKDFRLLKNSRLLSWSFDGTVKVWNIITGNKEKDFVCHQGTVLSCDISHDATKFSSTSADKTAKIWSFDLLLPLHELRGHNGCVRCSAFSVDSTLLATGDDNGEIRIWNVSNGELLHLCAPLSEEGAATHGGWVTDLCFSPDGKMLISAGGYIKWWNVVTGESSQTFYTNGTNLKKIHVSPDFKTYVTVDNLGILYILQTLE

Trypsin = Trypsin (Sus scrofa, UniProt P00761); experiment: porcine trypsin inhibitors, dose response, selectivity assay for Rce1 protease inhibitor project, biochemical, quenched peptide fluorescence, cherry-pick (AID 488789)
[13] = Shn3 3'UTR reporter inhibitors, dose response, cell-based, Clone20 osteoblasts, firefly luciferase, cherry-picked (AID 624132); assay type: functional;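 note: firefly luciferase luminescence from reporter carrying the Shn3 3'UTR in osteoblasts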
[14] = control 3'UTR Renilla luciferase suppression, dose response, counter-screen for Shn3 inhibitor project, cell-based, Clone20-Shn3RL, cherry-picked (AID 624133); assay type: functional
[15] = HepG2 cell cytotoxicity, dose response, cytotoxicity control for Shn3 inhibitor project, CellTiter-Glo, cherry-picked (AID 624134); assay type: functional, cell-based
[16] = HEp-2 cell cytotoxicity, dose response, cytotoxicity control for RSV inhibitor project, HTS (AID 2410); assay type: functional; conditions: human respiratory syncytial virus

Sequence of Voltage-dependent T-type calcium channel subunit alpha-1H (O95180 whole entry): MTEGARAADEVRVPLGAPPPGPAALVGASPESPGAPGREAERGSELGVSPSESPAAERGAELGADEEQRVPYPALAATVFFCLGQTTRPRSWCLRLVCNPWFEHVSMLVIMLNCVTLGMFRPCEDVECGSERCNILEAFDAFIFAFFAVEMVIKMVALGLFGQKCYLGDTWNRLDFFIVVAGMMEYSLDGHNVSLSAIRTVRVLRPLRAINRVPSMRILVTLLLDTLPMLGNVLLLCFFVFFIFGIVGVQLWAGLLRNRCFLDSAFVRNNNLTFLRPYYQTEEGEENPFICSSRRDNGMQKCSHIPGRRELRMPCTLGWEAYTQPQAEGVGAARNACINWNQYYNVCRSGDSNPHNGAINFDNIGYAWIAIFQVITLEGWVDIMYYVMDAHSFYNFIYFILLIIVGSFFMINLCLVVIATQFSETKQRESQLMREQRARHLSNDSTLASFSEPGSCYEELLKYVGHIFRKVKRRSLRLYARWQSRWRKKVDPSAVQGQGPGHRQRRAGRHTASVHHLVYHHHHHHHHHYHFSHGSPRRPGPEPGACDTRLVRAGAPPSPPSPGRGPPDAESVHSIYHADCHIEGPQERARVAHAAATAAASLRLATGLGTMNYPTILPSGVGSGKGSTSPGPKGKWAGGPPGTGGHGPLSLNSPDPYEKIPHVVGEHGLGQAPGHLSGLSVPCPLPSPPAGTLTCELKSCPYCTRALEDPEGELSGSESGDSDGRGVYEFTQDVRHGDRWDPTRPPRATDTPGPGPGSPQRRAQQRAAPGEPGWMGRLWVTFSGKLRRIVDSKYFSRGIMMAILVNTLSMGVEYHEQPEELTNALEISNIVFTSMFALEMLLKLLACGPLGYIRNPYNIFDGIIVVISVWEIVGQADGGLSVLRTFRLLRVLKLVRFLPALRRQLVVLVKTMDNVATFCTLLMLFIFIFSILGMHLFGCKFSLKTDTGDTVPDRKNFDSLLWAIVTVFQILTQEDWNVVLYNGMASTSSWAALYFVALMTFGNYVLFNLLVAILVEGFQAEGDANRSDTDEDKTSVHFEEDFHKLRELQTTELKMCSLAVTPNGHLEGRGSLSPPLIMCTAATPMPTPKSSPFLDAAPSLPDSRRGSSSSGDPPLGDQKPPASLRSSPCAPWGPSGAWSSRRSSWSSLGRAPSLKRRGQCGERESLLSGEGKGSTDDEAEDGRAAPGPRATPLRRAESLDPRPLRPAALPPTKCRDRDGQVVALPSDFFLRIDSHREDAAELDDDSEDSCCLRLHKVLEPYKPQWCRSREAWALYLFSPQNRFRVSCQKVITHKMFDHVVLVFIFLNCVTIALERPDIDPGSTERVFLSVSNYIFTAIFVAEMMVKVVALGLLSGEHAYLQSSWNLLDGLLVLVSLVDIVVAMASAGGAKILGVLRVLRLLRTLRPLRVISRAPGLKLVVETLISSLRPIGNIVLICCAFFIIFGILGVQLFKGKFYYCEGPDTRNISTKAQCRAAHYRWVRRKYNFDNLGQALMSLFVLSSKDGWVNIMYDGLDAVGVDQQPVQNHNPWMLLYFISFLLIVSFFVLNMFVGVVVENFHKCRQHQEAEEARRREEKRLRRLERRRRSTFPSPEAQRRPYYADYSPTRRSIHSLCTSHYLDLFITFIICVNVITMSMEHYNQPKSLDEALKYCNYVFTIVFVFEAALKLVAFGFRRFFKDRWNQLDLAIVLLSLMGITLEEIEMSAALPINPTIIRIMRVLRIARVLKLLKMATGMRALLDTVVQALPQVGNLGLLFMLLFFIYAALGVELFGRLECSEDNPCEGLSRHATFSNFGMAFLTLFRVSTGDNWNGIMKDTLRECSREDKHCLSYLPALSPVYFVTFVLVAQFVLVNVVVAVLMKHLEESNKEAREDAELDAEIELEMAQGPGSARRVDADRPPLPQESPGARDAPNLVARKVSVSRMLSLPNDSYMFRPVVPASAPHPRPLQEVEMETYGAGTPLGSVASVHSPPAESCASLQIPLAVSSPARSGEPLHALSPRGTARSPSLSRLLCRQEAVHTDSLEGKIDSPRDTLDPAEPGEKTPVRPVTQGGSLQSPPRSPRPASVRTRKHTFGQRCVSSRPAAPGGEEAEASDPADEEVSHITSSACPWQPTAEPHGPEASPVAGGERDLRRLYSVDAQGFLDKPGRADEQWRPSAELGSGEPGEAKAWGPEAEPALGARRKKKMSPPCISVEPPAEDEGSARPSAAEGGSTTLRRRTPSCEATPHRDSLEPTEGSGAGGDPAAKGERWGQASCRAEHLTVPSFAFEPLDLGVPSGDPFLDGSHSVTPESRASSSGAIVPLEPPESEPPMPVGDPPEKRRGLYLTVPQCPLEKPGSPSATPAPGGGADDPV
T4 sequence (Q9UBE0 whole entry): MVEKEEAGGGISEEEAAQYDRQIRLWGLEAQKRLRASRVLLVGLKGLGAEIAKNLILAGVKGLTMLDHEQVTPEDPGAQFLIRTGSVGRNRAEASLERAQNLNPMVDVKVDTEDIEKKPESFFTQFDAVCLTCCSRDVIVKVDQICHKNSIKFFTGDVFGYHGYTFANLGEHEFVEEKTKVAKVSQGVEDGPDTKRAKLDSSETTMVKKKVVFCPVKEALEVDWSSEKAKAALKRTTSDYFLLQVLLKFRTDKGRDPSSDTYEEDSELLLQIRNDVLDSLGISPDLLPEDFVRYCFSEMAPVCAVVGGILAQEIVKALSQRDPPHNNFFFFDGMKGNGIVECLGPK
T4 sequence (Q9UBT2 whole entry): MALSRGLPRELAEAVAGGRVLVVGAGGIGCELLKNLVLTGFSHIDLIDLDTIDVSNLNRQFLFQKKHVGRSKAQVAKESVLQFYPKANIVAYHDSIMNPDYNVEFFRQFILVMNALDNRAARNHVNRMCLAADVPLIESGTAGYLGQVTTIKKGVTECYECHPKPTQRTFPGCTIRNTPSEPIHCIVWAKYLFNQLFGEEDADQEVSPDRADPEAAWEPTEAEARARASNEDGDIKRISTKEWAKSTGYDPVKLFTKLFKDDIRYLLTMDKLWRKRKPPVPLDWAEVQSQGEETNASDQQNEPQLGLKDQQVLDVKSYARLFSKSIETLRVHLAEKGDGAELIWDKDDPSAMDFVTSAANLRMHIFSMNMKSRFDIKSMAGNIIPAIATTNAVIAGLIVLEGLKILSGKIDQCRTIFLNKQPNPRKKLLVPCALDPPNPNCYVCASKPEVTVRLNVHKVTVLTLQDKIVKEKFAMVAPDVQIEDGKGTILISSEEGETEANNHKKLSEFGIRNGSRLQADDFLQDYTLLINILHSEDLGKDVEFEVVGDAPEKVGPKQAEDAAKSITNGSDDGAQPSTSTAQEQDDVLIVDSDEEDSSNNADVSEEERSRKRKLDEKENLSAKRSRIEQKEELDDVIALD
Sequence of Polyadenylate-binding protein 1 (P11940 whole entry): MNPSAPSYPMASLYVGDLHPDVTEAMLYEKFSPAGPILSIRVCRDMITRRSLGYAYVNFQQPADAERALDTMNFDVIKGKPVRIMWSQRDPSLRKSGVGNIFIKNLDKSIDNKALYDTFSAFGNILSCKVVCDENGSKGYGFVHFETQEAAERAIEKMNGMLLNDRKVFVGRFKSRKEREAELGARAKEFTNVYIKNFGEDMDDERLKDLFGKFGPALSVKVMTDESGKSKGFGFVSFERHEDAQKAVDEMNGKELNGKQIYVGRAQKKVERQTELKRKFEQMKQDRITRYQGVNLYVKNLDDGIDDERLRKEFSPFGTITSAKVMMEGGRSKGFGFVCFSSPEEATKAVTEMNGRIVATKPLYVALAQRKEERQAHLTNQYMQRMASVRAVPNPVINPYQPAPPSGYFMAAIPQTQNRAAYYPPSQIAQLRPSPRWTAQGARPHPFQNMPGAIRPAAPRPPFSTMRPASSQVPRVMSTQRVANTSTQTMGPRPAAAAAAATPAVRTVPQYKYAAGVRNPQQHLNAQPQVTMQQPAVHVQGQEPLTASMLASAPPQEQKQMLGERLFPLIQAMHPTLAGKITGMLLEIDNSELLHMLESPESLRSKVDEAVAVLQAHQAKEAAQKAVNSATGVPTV
Sequence of Trypsin (P00761 whole entry): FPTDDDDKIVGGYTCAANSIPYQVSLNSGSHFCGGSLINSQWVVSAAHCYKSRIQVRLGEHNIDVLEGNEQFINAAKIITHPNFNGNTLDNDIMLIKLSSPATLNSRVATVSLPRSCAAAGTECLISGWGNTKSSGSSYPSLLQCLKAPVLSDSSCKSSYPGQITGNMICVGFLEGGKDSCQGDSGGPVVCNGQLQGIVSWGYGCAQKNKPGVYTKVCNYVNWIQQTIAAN
Sequence of Induced myeloid leukemia cell differentiation protein Mcl-1 (Q07820 whole entry): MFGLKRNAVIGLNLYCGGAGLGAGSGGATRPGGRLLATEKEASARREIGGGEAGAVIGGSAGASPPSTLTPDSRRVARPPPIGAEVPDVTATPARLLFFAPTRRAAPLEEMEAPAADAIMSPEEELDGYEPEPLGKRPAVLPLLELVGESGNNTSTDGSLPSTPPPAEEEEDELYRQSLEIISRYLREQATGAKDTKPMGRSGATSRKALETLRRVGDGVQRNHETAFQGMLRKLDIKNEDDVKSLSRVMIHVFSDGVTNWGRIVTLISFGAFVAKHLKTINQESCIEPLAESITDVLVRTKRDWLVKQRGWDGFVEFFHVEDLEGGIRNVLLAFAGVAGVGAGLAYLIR

Compound: COc1ccc(C(=O)Oc2cccc3cccnc23)cc1S(=O)(=O)N1CCOCC1
- CC50 [1]: 26.6 µM (active)
- CC50 [2]: 18 µM (active)
- IC50 (cells): 6.24 µM (active)

Compound: N#CC1=C(N)Oc2[nH]nc(-c3ccc(F)cc3)c2C1c1ccncc1 (stereo not given)
- AC50 [3]: 7.34 µM (active)
- EC50 (Protein RecA): 5.79 µM (active)
- IC50 (Leucine aminopeptidase): 94.3 µM (active)

Compound: CCOC(=O)c1ccc(NC(=O)C2C3CCC(C3)C2C(=O)O)cc1 (stereo not given)
- IC50 [4]: > 100 µM (active)
- IC50 (Leucine aminopeptidase): 20 µM (active)

Compound: Cc1cc(/C=C2\C(=N)N3N=C(c4ccco4)SC3=NC2=O)c(C)n1Cc1ccccc1
- IC50 (SUMO-activating enzyme [5]): 8.55 µM (active)
- IC50 (SUMO-activating enzyme [6]): 7.54 µM (active)

Compound: Cc1cccc(NC(=O)CNc2cc(C)ccc2C)c1
- EC50 [7]: 15.2 µM (active)

Compound: CC1=CC(C)C2C(=O)N(CCC[N+](C)(C)C)C(=O)C2C1 (stereo not given)
- IC50 [8]: 6.94 µM (active)
- IC50 [9]: 97.8 µM (active)

Compound: CCN1CCN(c2nc3ccccc3nc2C(C#N)C(=O)OCc2ccccc2)CC1 (stereo not given)
- IC50 [8]: 44.8 µM (active)
- IC50 [9]: 93.8 µM (active)

Compound: COc1cc(C(=O)Nc2ccc3c(c2)C(=O)c2ccccc2C3=O)cc(OC)c1OC
- IC50 [10]: 2.77 µM (active)

Compound: CC/C(=N\n1nnnc1Nc1ccccc1)c1ccccc1
- EC50 [7]: 5.34 µM (active)

Compound: COc1ccc(-n2c(SCC(=O)Nc3ccc(C(=O)O)cc3)nnc2-c2cccs2)cc1
- IC50 (Leucine aminopeptidase): 14.5 µM (active)

Compound: COc1cc(C(c2c(C)[nH]n(-c3ccccc3)c2=O)c2c(C)[nH]n(-c3ccccc3)c2=O)cc(OC)c1OC
- IC50 [11]: 19.9 µM (inactive)
- IC50 (SUMO-activating enzyme [5]): 6.66 µM (active)
- IC50 (SUMO-activating enzyme [6]): 33.9 µM (active)
- IC50 (Genome polyprotein): 38.3 µM (active)
- IC50 [12]: 24.4 µM (active)

Compound: O=C(Nc1ccc(S(=O)(=O)N2CCCCCC2)cc1)c1ccc(Br)o1
- EC50 [7]: 7.13 µM (active)

Compound: COc1c2ccoc2nc2c(OC)cccc12 [GAMMA-FAGARINE]
- AC50 (Trypsin): 9.78 µM (active)

Compound: CC(C)(C)n1nnnc1C(c1ccc(C(F)(F)F)cc1)N(Cc1ccc(F)cc1)Cc1ccco1 (stereo not given)
- AC50 [13]: 10.1 µM (active)
- AC50 [14]: 18.8 µM (active)
- EC50 [7]: 2.84 µM (active)
- AC50 [15]: 40.3 µM (active)
- CC50 [16]: 10.3 µM (active)
